Source: PubChem BioAssay (NCI)
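Following 48 hours of exposure in 96-well plates, responses at five concentrations were used to interpolate endpoints linearly. The concentration for full growth arrest is given as TGI.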

Key:
Assay in all cases: NCI-60 cell line screen, 48 h
[1] = system: LOX IMVI melanoma
[2] = system: MALME-3M melanoma
[3] = system: NCI-H522 lung
[4] = system: MCF7 breast
[5] = system: SK-OV-3 ovarian
[6] = system: HS 578T breast
[7] = system: EKVX NSCLC
[8] = system: KM12 colon
[9] = system: NCI/ADR-RES ovarian
[10] = system: DU-145 prostate
[11] = system: SK-MEL-5 melanoma
[12] = system: NCI-H460 lung
[13] = system: U251 CNS
[14] = system: SK-MEL-28 melanoma
[15] = system: IGROV1 ovarian
[16] = system: MDA-N
[17] = system: OVCAR-5 ovarian
[18] = system: UO-31 renal
[19] = system: SNB-19 CNS
[20] = system: M14 melanoma
[21] = system: SF-295 CNS
[22] = system: MOLT-4 leukemia
[23] = system: HCT-15 colon
[24] = system: CCRF-CEM leukemia
[25] = system: ACHN renal
[26] = system: MDA-MB-435
[27] = system: OVCAR-8 ovarian
[28] = system: HCC-2998 colon
[29] = system: NCI-H226 lung
[30] = system: NCI-H23 lung
[31] = system: SF-539 CNS
[32] = system: SF-268 CNS
[33] = system: HCT-116 colon
[34] = system: SR leukemia
[35] = system: HOP-62 NSCLC
[36] = system: HOP-92 NSCLC
[37] = system: 786-0 renal
[38] = system: A549 NSCLC
[39] = system: SN12C renal
[40] = system: HL-60(TB) leukemia
[41] = system: RPMI-8226 leukemia
[42] = system: MDA-MB-231 breast
[43] = system: UACC-257 melanoma
[44] = system: COLO 205 colon
[45] = system: OVCAR-4 ovarian
[46] = system: PC-3 prostate
[47] = system: UACC-62 melanoma
[48] = system: K-562 leukemia
[49] = system: T-47D breast
[50] = system: SK-MEL-2 melanoma
[51] = system: A498 renal
[52] = system: SNB-75 CNS
[53] = system: SW-620 colon
[54] = system: OVCAR-3 ovarian
[55] = system: RXF 393 renal
[56] = system: HT29 colon
[57] = system: CAKI-1 renal
[58] = system: TK-10 renal
[59] = system: BT-549 breast

`CNC(=O)c1n[nH]n(C2CCCCC2)c1=S` was tested, and the TGI [1] was > 100 µM, the TGI [2] was > 100 µM and the TGI [3] was > 100 µM. For the same molecule, the TGI [4] was > 100 µM, the TGI [5] was > 100 µM and the TGI [6] was > 100 µM. For the same molecule, the TGI [7] was > 100 µM, the TGI [8] was > 100 µM and the TGI [9] was > 100 µM. For the same molecule, the TGI [10] was > 100 µM, the TGI [11] was > 100 µM and the TGI [12] was > 100 µM. For the same molecule, the TGI [13] was > 100 µM, the TGI [14] was > 100 µM and the TGI [15] was > 100 µM. For the same molecule, the TGI [16] was > 100 µM, the TGI [17] was > 100 µM and the TGI [18] was > 100 µM. The TGI [19] was > 100 µM, the TGI [20] was > 100 µM and the TGI [21] was > 100 µM. For the same molecule, the TGI [22] was > 100 µM, the TGI [23] was > 100 µM and the TGI [24] was > 100 µM. For the same molecule, the TGI [25] was > 100 µM, the TGI [26] was > 100 µM and the TGI [27] was > 100 µM. For the same molecule, the TGI [28] was > 100 µM, the TGI [29] was > 100 µM and the TGI [30] was > 100 µM. The TGI [31] was > 100 µM, the TGI [32] was > 100 µM and the TGI [33] was > 100 µM. For the same molecule, the TGI [34] was > 100 µM, the TGI [35] was > 100 µM and the TGI [36] was > 100 µM. For the same molecule, the TGI [37] was > 100 µM, the TGI [38] was > 100 µM and the TGI [39] was > 100 µM. The TGI [40] was > 100 µM, the TGI [41] was > 100 µM and the TGI [42] was > 100 µM. For the same molecule, the TGI [43] was > 100 µM, the TGI [44] was > 100 µM and the TGI [45] was > 100 µM. The TGI [46] was > 100 µM, the TGI [47] was > 100 µM and the TGI [48] was > 100 µM. The TGI [49] was > 100 µM, the TGI [50] was > 100 µM and the TGI [51] was > 100 µM. For the same molecule, the TGI [52] was > 100 µM, the TGI [53] was > 100 µM and the TGI [54] was 37 µM. For the same molecule, the TGI [55] was > 100 µM, the TGI [56] was > 100 µM and the TGI [57] was > 100 µM.

With `CC1(C)OP(=O)(c2ccccc2)C=C1Sc1ccc([N+](=O)[O-])cc1[N+](=O)[O-]` (configuration not stated) the TGI [1] was > 100 µM, the TGI [2] was > 100 µM and the TGI [3] was 36.6 µM. The TGI [4] was > 100 µM, the TGI [58] was > 100 µM and the TGI [5] was > 100 µM. For the same molecule, the TGI [6] was > 100 µM, the TGI [7] was > 100 µM and the TGI [8] was > 100 µM. For the same molecule, the TGI [9] was > 100 µM, the TGI [10] was > 100 µM and the TGI [11] was > 100 µM. For the same molecule, the TGI [12] was > 100 µM, the TGI [13] was > 100 µM and the TGI [14] was > 100 µM. The TGI [15] was > 100 µM, the TGI [16] was > 100 µM and the TGI [17] was > 100 µM. For the same molecule, the TGI [19] was > 100 µM, the TGI [20] was > 100 µM and the TGI [21] was > 100 µM. For the same molecule, the TGI [23] was > 100 µM, the TGI [25] was > 100 µM and the TGI [26] was > 100 µM. For the same molecule, the TGI [27] was > 100 µM, the TGI [29] was > 100 µM and the TGI [30] was > 100 µM. For the same molecule, the TGI [31] was > 100 µM, the TGI [32] was > 100 µM and the TGI [33] was > 100 µM. For the same molecule, the TGI [34] was 42.9 µM, the TGI [35] was > 100 µM and the TGI [36] was > 100 µM. For the same molecule, the TGI [37] was > 100 µM, the TGI [38] was > 100 µM and the TGI [39] was > 100 µM. For the same molecule, the TGI [40] was 37.4 µM, the TGI [43] was > 100 µM and the TGI [44] was > 100 µM. For the same molecule, the TGI [45] was > 100 µM, the TGI [46] was > 100 µM and the TGI [47] was > 100 µM. The TGI [48] was 67.3 µM, the TGI [49] was > 100 µM and the TGI [50] was > 100 µM. For the same molecule, the TGI [51] was > 100 µM, the TGI [52] was > 100 µM and the TGI [53] was > 100 µM. For the same molecule, the TGI [54] was > 100 µM, the TGI [56] was > 100 µM and the TGI [57] was > 100 µM.

`O=[N+]([O-])c1ccc(SN=S=NSc2cccc(SN=S=NSc3ccc([N+](=O)[O-])cc3)c2)cc1` was tested, and the TGI [1] was 35.5 µM, the TGI [2] was > 100 µM and the TGI [3] was 34.3 µM. The TGI [4] was 75 µM, the TGI [5] was > 100 µM and the TGI [6] was > 100 µM. The TGI [7] was > 100 µM, the TGI [8] was > 100 µM and the TGI [9] was > 100 µM. The TGI [11] was > 100 µM, the TGI [12] was > 100 µM and the TGI [13] was 32 µM. The TGI [14] was > 100 µM, the TGI [15] was > 100 µM and the TGI [16] was 98.8 µM. For the same molecule, the TGI [17] was 74.3 µM, the TGI [18] was 70.2 µM and the TGI [19] was > 100 µM. The TGI [20] was > 100 µM, the TGI [21] was > 100 µM and the TGI [22] was > 100 µM. The TGI [23] was 57.8 µM, the TGI [24] was 42.5 µM and the TGI [25] was > 100 µM. For the same molecule, the TGI [26] was 71.2 µM, the TGI [27] was 53.4 µM and the TGI [28] was > 100 µM. The TGI [32] was > 100 µM, the TGI [59] was 40.6 µM and the TGI [33] was > 100 µM. The TGI [34] was > 100 µM, the TGI [35] was > 100 µM and the TGI [36] was > 100 µM. The TGI [37] was 27.2 µM, the TGI [38] was > 100 µM and the TGI [39] was 29.2 µM. The TGI [40] was 83.7 µM, the TGI [41] was > 100 µM and the TGI [43] was > 100 µM. The TGI [44] was > 100 µM, the TGI [45] was > 100 µM and the TGI [46] was 40.1 µM. For the same molecule, the TGI [47] was > 100 µM, the TGI [48] was > 100 µM and the TGI [49] was 38.9 µM. For the same molecule, the TGI [50] was 34.1 µM, the TGI [51] was > 100 µM and the TGI [53] was 60.3 µM. The TGI [54] was > 100 µM, the TGI [56] was > 100 µM and the TGI [57] was 41.1 µM.

In the case of `O=C1CCN2c3ccccc3[C@H]3Cc4cccc(c4[C@@H]2C3)CCO1`, the TGI [1] is reported as > 100 µM, the TGI [2] is reported as > 100 µM and the TGI [3] is reported as > 100 µM. For the same molecule, the TGI [4] was > 100 µM, the TGI [58] was > 100 µM and the TGI [5] was > 100 µM. For the same molecule, the TGI [7] was > 100 µM, the TGI [8] was > 100 µM and the TGI [9] was > 100 µM. The TGI [10] was > 100 µM, the TGI [11] was 54.3 µM and the TGI [12] was > 100 µM. For the same molecule, the TGI [13] was > 100 µM, the TGI [14] was > 100 µM and the TGI [15] was 84.9 µM. The TGI [16] was 80.3 µM, the TGI [17] was > 100 µM and the TGI [18] was 76.4 µM. The TGI [19] was > 100 µM, the TGI [20] was 49.1 µM and the TGI [21] was > 100 µM. For the same molecule, the TGI [22] was 54.5 µM, the TGI [23] was > 100 µM and the TGI [24] was > 100 µM. For the same molecule, the TGI [25] was > 100 µM, the TGI [26] was > 100 µM and the TGI [27] was > 100 µM. For the same molecule, the TGI [28] was > 100 µM, the TGI [29] was > 100 µM and the TGI [30] was > 100 µM. For the same molecule, the TGI [31] was > 100 µM, the TGI [32] was > 100 µM and the TGI [59] was > 100 µM. For the same molecule, the TGI [33] was > 100 µM, the TGI [34] was 74.6 µM and the TGI [35] was > 100 µM. For the same molecule, the TGI [36] was > 100 µM, the TGI [37] was > 100 µM and the TGI [38] was > 100 µM. The TGI [39] was 37.4 µM, the TGI [40] was 48.8 µM and the TGI [41] was > 100 µM. The TGI [42] was > 100 µM, the TGI [43] was > 100 µM and the TGI [44] was > 100 µM. The TGI [45] was > 100 µM, the TGI [46] was > 100 µM and the TGI [47] was > 100 µM. For the same molecule, the TGI [48] was 80.7 µM, the TGI [49] was > 100 µM and the TGI [50] was > 100 µM. For the same molecule, the TGI [51] was > 100 µM, the TGI [52] was 96.7 µM and the TGI [53] was > 100 µM. For the same molecule, the TGI [54] was 86 µM, the TGI [55] was > 100 µM and the TGI [56] was > 100 µM. The TGI [57] was > 100 µM.
